# Data as given in US10118930B2, “Piperidinylpyrazolopyrimidinones and their use” (BAYER PHARMA AKTIENGESELLSCHAFT, priority 2015, dated 2018).
# Structures can show the parent of a compound that is named as a salt.
# Tested on: clot lysis (fibrinolysis) in diluted human citrated plasma, tPA-induced
# Test: Plasma-based clot lysis assay (5%)
# Assay type: biochemical
# Conditions: human citrated platelet-poor plasma 5%, fibrinogen 3 μM, CaCl2 10 mM, tPA 0.2 nM, 37° C., OD at 405 nm
# In short: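 Compounds added to 5% platelet-poor citrated human plasma with 3 μM fibrinogen in 20 mM HEPES, 150 mM NaCl, 0.01% Brij, pH 7. Clotting and lysis started with 10 mM CaCl2 and 0.2 nM tPA at 37° C. IC50 derived by comparing time courses with a blank control reaction.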
row,IC50,Compound
1,37 nM,"Cc1nn2c(C3CCNCC3)cc(=O)[nH]c2c1C(=O)N(C)CC1CC1 [Example 425, N-(cyclopropyl-methyl)-N,2-dimethyl-5-oxo-7-(piperidin-4-yl)-4,5-dihydro-pyrazolo[1,5-a] pyrimidine-3-carboxamide hydrochloride]"
2,56 nM,"Cc1nn2c(C3CCNCC3)cc(=O)[nH]c2c1C(=O)N1CCOC(C)(C)C1 [Example 426, 3-[(2,2-dimethyl-morpholin-4-yl)carbonyl]-2-methyl-7-(piperidin-4-yl) pyrazolo[1,5-a] pyrimidin-5(4H)-one hydrochloride]"
3,29 nM,"Cc1nn2c(C3CCNCC3)cc(=O)[nH]c2c1C(=O)N(C)Cc1ccccn1 [Example 428, N,2-dimethyl-5-oxo-7-(piperidin-4-yl)-N-(pyridin-2-ylmethyl)-4,5-dihydro-pyrazolo[1,5-a] pyrimidine-3-carboxamide hydrochloride]"
4,30 nM,"Cc1nn2c(C3CCNCC3)cc(=O)[nH]c2c1C(=O)N1CCC(F)(F)C1 [Example 429, 3-[(3,3-difluoro-pyrrolidin-1-yl)carbonyl]-2-methyl-7-(piperidin-4-yl) pyrazolo[1,5-a] pyrimidin-5(4H)-one hydrochloride]"
5,120 nM,"Cc1nn2c(C3CCNCC3)cc(=O)[nH]c2c1C(=O)N1CCNC(=O)CC1 [Example 430, 2-methyl-3-[(5-oxo-1,4-diazepan-1-yl)carbonyl]-7-(piperidin-4-yl) pyrazolo[1,5-a] pyrimidin-5(4H)-one hydrochloride]"
6,28 nM,"Cc1ccccc1N(C)C(=O)c1c(C)nn2c(C3CCNCC3)cc(=O)[nH]c12 [Example 431, N,2-dimethyl-N-(2-methyl-phenyl)-5-oxo-7-(piperidin-4-yl)-4,5-dihydro-pyrazolo[1,5-a] pyrimidine-3-carboxamide hydrochloride]"
7,120 nM,"CCCN(CC)C(=O)c1c(C)nn2c(C3CCNCC3)cc(=O)[nH]c12 [Example 432, N-ethyl-2-methyl-5-oxo-7-(piperidin-4-yl)-N-propyl-4,5-dihydro-pyrazolo[1,5-a] pyrimidine-3-carboxamide hydrochloride]"
8,32 nM,"Cc1nn2c(C3CCNCC3)cc(=O)[nH]c2c1C(=O)N1CCC(C)(C)CC1 [Example 434, 3-[(4,4-dimethyl-piperidin-1-yl)carbonyl]-2-methyl-7-(piperidin-4-yl) pyrazolo[1,5-a] pyrimidin-5(4H)-one hydrochloride]"
9,39 nM,"Cc1nn2c(C3CCNCC3)cc(=O)[nH]c2c1C(=O)N(C)Cc1ccccc1 [Example 436, N-benzyl-N,2-dimethyl-5-oxo-7-(piperidin-4-yl)-4,5-dihydro-pyrazolo[1,5-a] pyrimidine-3-carboxamide hydrochloride]"
10,12 nM,"Cc1nn2c(C3CCNCC3)cc(=O)[nH]c2c1-c1nc(-c2ccccc2F)no1 [Example 438, 3-[3-(2-fluorophenyl)-1,2,4-oxadiazol-5-yl]-2-methyl-7-(piperidin-4-yl)pyrazolo[1,5-a]pyrimidin-5(4H)-one hydrochloride]"
11,26 nM,"Cc1nn2c(C3CCNCC3)cc(=O)[nH]c2c1-c1nc(Cc2ccccc2Cl)no1 [Example 439, 3-[3-(2-chlorobenzyl)-1,2,4-oxadiazol-5-yl]-2-methyl-7-(piperidin-4-yl)pyrazolo[1,5-a]pyrimidin-5(4H)-one hydrochloride]"
12,23 nM,"Cc1ccccc1-c1noc(-c2c(C)nn3c(C4CCNCC4)cc(=O)[nH]c23)n1 [Example 440, 2-methyl-3-[3-(2-methylphenyl)-1,2,4-oxadiazol-5-yl]-7-(piperidin-4-yl)pyrazolo[1,5-a]pyrimidin-5(4H)-one hydrochloride]"
13,29 nM,"Cc1nn2c(C3CCNCC3)cc(=O)[nH]c2c1-c1nc(-c2cccc(Cl)c2)no1 [Example 441, 3-[3-(3-chlorophenyl)-1,2,4-oxadiazol-5-yl]-2-methyl-7-(piperidin-4-yl)pyrazolo[1,5-a]pyrimidin-5(4H)-one hydrochloride]"
14,27 nM,"Cc1nn2c(C3CCNCC3)cc(=O)[nH]c2c1-c1nc(-c2ccc(C(F)(F)F)cc2)no1 [Example 442, 2-methyl-7-(piperidin-4-yl)-3-{3-[4-(trifluoromethyl)phenyl]-1,2,4-oxadiazol-5-yl}pyrazolo[1,5-a]pyrimidin-5(4H)-one hydrochloride]"
15,17 nM,"COc1c(F)cc(Cc2nnc(-c3cnn4c(C5CCNCC5)cc(=O)[nH]c34)o2)cc1F [Example 444, 3-[5-(3,5-difluoro-4-methoxybenzyl)-1,3,4-oxadiazol-2-yl]-7-(piperidin-4-yl)pyrazolo[1,5-a]pyrimidin-5(4H)-one hydrochloride]"
16,56 nM,"Cc1nn2c(C3CCNCC3)cc(=O)[nH]c2c1-c1nnc(-c2ccccc2F)o1 [Example 445, 3-[5-(2-fluorophenyl)-1,3,4-oxadiazol-2-yl]-2-methyl-7-(piperidin-4-yl)pyrazolo[1,5-a]pyrimidin-5(4H)-one hydrochloride]"

row,IC50,Compound
1,10 nM,"Cc1nn2c(C3CCNCC3)cc(=O)[nH]c2c1-c1nc(Cc2ccc(O)cc2)no1 [Example 446, 3-[3-(4-hydroxybenzyl)-1,2,4-oxadiazol-5-yl]-2-methyl-7-(piperidin-4-yl)pyrazolo[1,5-a]pyrimidin-5(4H)-one hydrochloride]"
2,14 nM,"COc1ccc(Cc2nnc(-c3cnn4c(C5CCNCC5)cc(=O)[nH]c34)o2)cc1F [Example 447, 3-[5-(3-fluoro-4-methoxybenzyl)-1,3,4-oxadiazol-2-yl]-7-(piperidin-4-yl)pyrazolo[1,5-a]pyrimidin-5(4H)-one hydrochloride]"
3,11 nM,"O=C(c1cnn2c(C3CCNCC3)cc(=O)[nH]c12)C1CCCC1 [Example 451, 3-(cyclopentylcarbonyl)-7-(piperidin-4-yl)pyrazolo[1,5-a]pyrimidin-5(4H)-one hydrochloride]"
4,8 nM,"CCC(C)C(=O)c1cnn2c(C3CCNCC3)cc(=O)[nH]c12 (stereo not drawn) [Example 452, 3-(2-methylbutanoyl)-7-(piperidin-4-yl)pyrazolo[1,5-a]pyrimidin-5 (4H)-one hydrochloride]"
5,8 nM,"O=C(c1cnn2c(C3CCNCC3)cc(=O)[nH]c12)C1CC1 [Example 453, 3-(cyclopropylcarbonyl)-7-(piperidin-4-yl)pyrazolo[1,5-a]pyrimidin-5(4H)-one hydrochloride]"
6,34 nM,"COC(=O)c1c(C(F)(F)F)nn2c(C3CCNCC3)cc(=O)[nH]c12 [Example 454, Methyl 5-oxo-7-(piperidin-4-yl)-2-(trifluoromethyl)-4,5-dihydropyrazolo[1,5-a]pyrimidine-3-carboxylate hydrochloride]"
7,36 nM,"CCOC(=O)c1c(SC)nn2c(C3CCNCC3)cc(=O)[nH]c12 [Example 455, Ethyl 2-(methylsulfanyl)-5-oxo-7-(piperidin-4-yl)-4,5-dihydropyrazolo[1,5-a]pyrimidine-3-carboxylate hydrochloride]"
8,39 nM,"CC(C)(C)C(=O)c1cnn2c(C3CCNCC3)cc(=O)[nH]c12 [Example 456, 3-(2,2-dimethylpropanoyl)-7-(piperidin-4-yl)pyrazolo[1,5-a]pyrimidin-5(4H)-one hydrochloride]"
9,85 nM,"O=C(O)c1c(C(F)(F)F)nn2c(C3CCNCC3)cc(=O)[nH]c12 [Example 457, 5-oxo-7-(piperidin-4-yl)-2-(trifluoromethyl)-4,5-dihydropyrazolo[1,5-a]pyrimidine-3-carboxylic acid hydrochloride]"
10,130 nM,"CCOC(=O)c1c(C(F)(F)F)nn2c(C3CCNCC3)cc(=O)[nH]c12 [Example 458, Ethyl 5-oxo-7-(piperidin-4-yl)-2-(trifluoromethyl)-4,5-dihydropyrazolo[1,5-a]pyrimidine-3-carboxylate hydrochloride]"
11,83 nM,"CCCOC(=O)c1c(C(F)(F)F)nn2c(C3CCNCC3)cc(=O)[nH]c12 [Example 459, Propyl 5-oxo-7-(piperidin-4-yl)-2-(trifluoromethyl)-4,5-dihydropyrazolo[1,5-a]pyrimidine-3-carboxylate hydrochloride]"
12,59 nM,"CC(C)OC(=O)c1c(C(F)(F)F)nn2c(C3CCNCC3)cc(=O)[nH]c12 [Example 460, Propan-2-yl 5-oxo-7-(piperidin-4-yl)-2-(trifluoromethyl)-4,5-dihydropyrazolo[1,5-a]pyrimidine-3-carboxylate hydrochloride]"
13,61 nM,"Cc1nn2c(C3CCNCC3)cc(=O)[nH]c2c1C(=O)OCC(C)(F)F [Example 461, 2,2-difluoropropyl 2-methyl-5-oxo-7-(piperidin-4-yl)-4,5-dihydropyrazolo[1,5-a]pyrimidine-3-carboxylate hydrochloride]"
14,34 nM,"CC1(C)CCN(C(=O)c2cnn3c(C4CCNCC4)cc(=O)[nH]c23)C1 [Example 462, 3-[(3,3-dimethylpyrrolidin-1-yl)carbonyl]-7-(piperidin-4-yl)pyrazolo[1,5-a]pyrimidin-5 (4H)-one hydrochloride]"
15,51 nM,"CC(F)(F)COC(=O)c1cnn2c(C3CCNCC3)cc(=O)[nH]c12 [Example 463, 2,2-difluoropropyl 5-oxo-7-(piperidin-4-yl)-4,5-dihydropyrazolo[1,5-a]pyrimidine-3-carboxylate hydrochloride]"

row,Compound,IC50
1,"C=C(C)c1cnn2c(C3CCNCC3)cc(=O)[nH]c12 [Example 449, 7-(piperidin-4-yl)-3-(prop-1-en-2-yl)pyrazolo[1,5-a]pyrimidin-5 (4H)-one hydrochloride]",55 nM

# Same assay, conditions: human citrated platelet-poor plasma 5%, fibrinogen 3 μM, CaCl2 10 mM, tPA 0.2 nM, 37° C., OD at 405 nm; acetate
row,IC50,Compound
1,30 nM,"Cc1ccccc1-c1csc(-c2cnn3c(C4CCNCC4)cc(=O)[nH]c23)n1 [Example 448, 3-[4-(2-methylphenyl)-1,3-thiazol-2-yl]-7-(piperidin-4-yl)pyrazolo[1,5-a]pyrimidin-5(4H)-one acetate]"
